Target: T1, hGK (Homo sapiens, UniProt P35557)
T1 sequence (P35557 1-465): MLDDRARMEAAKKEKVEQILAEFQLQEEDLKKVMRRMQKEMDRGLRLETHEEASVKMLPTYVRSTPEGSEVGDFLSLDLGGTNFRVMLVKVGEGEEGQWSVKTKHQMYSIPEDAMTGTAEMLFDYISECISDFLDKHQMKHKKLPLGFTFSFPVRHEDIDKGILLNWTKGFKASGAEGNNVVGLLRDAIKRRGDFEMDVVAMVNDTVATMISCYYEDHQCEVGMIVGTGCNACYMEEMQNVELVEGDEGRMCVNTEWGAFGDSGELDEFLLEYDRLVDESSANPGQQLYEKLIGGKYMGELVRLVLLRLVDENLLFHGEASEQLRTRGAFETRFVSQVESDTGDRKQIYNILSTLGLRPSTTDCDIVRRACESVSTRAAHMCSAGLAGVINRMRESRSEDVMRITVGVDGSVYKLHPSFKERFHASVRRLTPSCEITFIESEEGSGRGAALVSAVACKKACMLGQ
Experiment: Glucokinase Activation Screening Assay (coupled enzyme assay with PK/LDH)
Type: biochemical
Conditions: 2 mM glucose; for hGK fold activation at 30 μM: fold activation at 30 μM compound
Protocol: Glucokinase Activation Screening Assay
GK activity (human or rat enzyme) is measured by a coupled enzyme assay using pyruvate kinase (PK) and lactate dehydrogenase (LDH) as coupling enzymes. GK activity is calculated from the decline in NADH monitored photometrically with a microtiter plate (MTP) reader at 340 nm.
For screening purposes, the GK assay is routinely run in a 384-MTP format, in a total volume of 33 μl/well. 10 μl of the ATP-regeneration solution (in HEPES-buffer*, pH 7.0, 6.73 U/ml pyruvate kinase, 6.8 U/ml lactate dehydrogenase) and 10 μl of the glucokinase-/glucose solution (15 μg/ml, 6.6 mM glucose in HEPES-buffer*, pH 7.0; the concentration of the glucose stock-solution was 660 mM in Millipore H2O) were mixed together with […] of a 10% DMSO solution (in HEPES-buffer*, pH 7.0) containing 3.3-fold the amounts of the compounds to achieve final compound concentrations in the range between 1 nM to 30 μM (sometimes 300 μM) in the assay solution (s. below). The solutions were mixed for 5 sec, and after a centrifugation at 243×g for 5 min, the solutions were preincubated for 25 min at room temperature.
The reaction was started by the addition of 10 μl of the NADH-/ATP-solution (4.29 mM NADH, 4.95 mM ATP, in HEPES-buffer*). The MTP was shaken for 5 sec., and then, the absorbance at 340 nm was monitored continuously in a MTP-reader (TECAN Spectro fluor plus) for the next 27 min (with a MTP-cycling time of 199 sec.). The final concentrations of the various components were as follows: 49.5 mM Hepes, pH 7.0, 1.49 mM PEP,1,3 mM NADH, 49.5 mM KCl, 4.96 mM MgCl2, 1.5 mM Mg-ATP, 1.98 mM DTT, 2.04 U/ml pyruvate kinase, 2.06 U/ml lactate-dehydrogenase, 0.91% DMSO, 0.15 μg/well glucokinase, and test compounds in the range between 1 nM and 300 μM.
The change in the optical density (ΔOD340 nm) in the presence of the compound was expressed relative to the ΔOD340 nm, ctrl of the control incubation (in the presence of 2 mM glucose and 0.91% DMSO), taking into account the optical density of the blank sample (incubation in the absence of 2 mM glucose). For the determination of the half maximal effective concentration (EC50), the %-Ctrl-values were plotted in a semi-logarithmic graph against the conc. of the compound of interest. The data points were fitted to a sigmoid curve function (f(x)=((%-Ctrlmax%-Ctrlmin)/(1−(EC50/x**^n(Hill)))+%-Ctrlmin)) by a non-linear regression analysis.
* Hepes-buffer (50 mM Hepes, pH 7.0, 5 mM MgCl2, 50 mM KCl, 1.5 mM PEP, 0.1% BSA). DTT was added to the Hepes-buffer from a 200× stock solution (in Millipore H2O) freshly each day. The final concentration of DTT in the Hepes-buffer is 2 mM.

## CCCOc1sc(C(=O)Nc2nccs2)cc1S(C)(=O)=O [Example 52, 4-Methanesulfonyl-5-propoxy-thiophene-2-carboxylic acid thiazol-2-ylamide]
  EC50: 10 µM
  hGK fold activation at 30 μM: 2.1

## Cc1csc(C(=O)Nc2nccs2)c1 [Example 4, 4-Methyl-thiophene-2-carboxylic acid thiazol-2-ylamide]
  hGK fold activation at 30 μM: 3.4

## CCCc1cc(C(=O)Nc2ccc(F)cn2)cs1 [Example 27, 5-Propyl-thiophene-3-carboxylic acid(5-fluoro-pyridin-2-yl)-amide]
  hGK fold activation at 30 μM: 2.1

## CS(=O)(=O)c1cc(C(=O)Nc2nccs2)sc1Cl [Example 5, 5-Chloro-4-methanesulfonyl-thiophene-2-carboxylic acid thiazol-2-ylamide]
  EC50: 5.9 µM
  hGK fold activation at 30 μM: 1.9

## COCc1csc(C(=O)Nc2ccn(Cc3ccccn3)n2)c1 [Example 15, 4-Methoxymethyl-thiophene-2-carboxylic acid(1-pyridin-2-ylmethyl-1H-pyrazol-3-yl)-amide]
  hGK fold activation at 30 μM: 3

## COCc1csc(C(=O)Nc2ccn(CC(=O)O)n2)c1 [Example 44, {3-[(4-Methoxymethyl-thiophene-2-carbonyl)-amino]-pyrazol-1-yl}-acetic acid]
  hGK fold activation at 30 μM: 1.7

## CCCc1cc(C(=O)Nc2ncc[nH]2)cs1 [Example 14, 5-Propyl-thiophene-3-carboxylic acid(1H-imidazol-2-yl)-amide]
  hGK fold activation at 30 μM: 2.1

## CCCc1cc(C(=O)Nc2nc(C)c(C(=O)OCC)s2)cs1 [Example 13, 4-Methyl-2-[(5-propyl-thiophene-3-carbonyl)-amino]-thiazole-5-carboxylic acid ethyl ester]
  hGK fold activation at 30 μM: 1.5

## COCc1csc(C(=O)Nc2cc(C)n(CC(=O)O)n2)c1 [Example 43, {3-[(4-Methoxymethyl-thiophene-2-carbonyl)-amino]-5-methyl-pyrazol-1-yl}-acetic acid]
  hGK fold activation at 30 μM: 1.2

## O=C(Nc1nccs1)c1ccsc1 [Example 2, Thiophene-3-carboxylic acid thiazol-2-ylamide]
  hGK fold activation at 30 μM: 1.3

## CCCc1cc(C(=O)Nc2nc(C)cs2)cs1 [Example 10, 5-Propyl-thiophene-3-carboxylic acid(4-methyl-thiazol-2-yl)-amide]
  EC50: 9.3 µM
  hGK fold activation at 30 μM: 5.2

## O=C(Nc1nccs1)c1csc([N+](=O)[O-])c1 [Example 20, 5-Nitro-thiophene-3-carboxylic acid thiazol-2-ylamide]
  hGK fold activation at 30 μM: 1.4

## CCCc1cc(C(=O)Nc2ccncn2)cs1 [Example 36, 5-Propyl-thiophene-3-carboxylic acid pyrimidin-4-ylamide]
  hGK fold activation at 30 μM: 2.7

## CCCc1cc(C(=O)Nc2nncs2)cs1 [Example 24, 5-Propyl-thiophene-3-carboxylic acid[1,3,4]thiadiazol-2-ylamide]
  hGK fold activation at 30 μM: 2.4

## O=C(Nc1nccs1)c1csc2c1CCCC2 [Example 7, 4,5,6,7-Tetrahydro-benzo[b]thiophene-3-carboxylic acid thiazol-2-ylamide]
  hGK fold activation at 30 μM: 1.2

## O=C(Nc1nccs1)c1csc2ccccc12 [Example 6, Benzo[b]thiophene-3-carboxylic acid thiazol-2-ylamide]
  hGK fold activation at 30 μM: 1.2

## Cc1csc(C(=O)Nc2cc(C)n(Cc3ccccn3)n2)c1 [Example 16, 4-Methyl-thiophene-2-carboxylic acid(5-methyl-1-pyridin-2-ylmethyl-1H-pyrazol-3-yl)-amide]
  hGK fold activation at 30 μM: 1.3

## CCCc1cc(C(=O)Nc2nc(C(=O)OCC)cs2)cs1 [Example 12, 2-[(5-Propyl-thiophene-3-carbonyl)-amino]-thiazole-4-carboxylic acid ethyl ester]
  EC50: 5 µM
  hGK fold activation at 30 μM: 2.6

## CCCc1cc(C(=O)Nc2ccon2)cs1 [Example 28, 5-Propyl-thiophene-3-carboxylic acid isoxazol-3-ylamide]
  hGK fold activation at 30 μM: 2

## CCN(CC)S(=O)(=O)c1cc(C(=O)Nc2nccs2)sc1C [Example 48, 4-Diethylsulfamoyl-5-methyl-thiophene-2-carboxylic acid thiazol-2-ylamide]
  EC50: 3.9 µM
  hGK fold activation at 30 μM: 6.4

## CCCc1cc(C(=O)Nc2cc(C)ccn2)cs1 [Example 39, 5-Propyl-thiophene-3-carboxylic acid(4-methyl-pyridin-2-yl)-amide]
  hGK fold activation at 30 μM: 2.4

## O=C(Nc1nccs1)c1cccs1 [Example 3, Thiophene-2-carboxylic acid thiazol-2-ylamide]
  hGK fold activation at 30 μM: 1.3

## CCOC(=O)Cn1ccc(NC(=O)c2cc(COC)cs2)n1 [Example 40, {3-[(4-Methoxymethyl-thiophene-2-carbonyl)-amino]-pyrazol-1-yl}-acetic acid ethyl ester]
  EC50: 4.2 µM
  hGK fold activation at 30 μM: 2.6

## CCCc1cc(C(=O)Nc2nc(C(=O)O)cs2)cs1 [Example 42, 2-[(5-Propyl-thiophene-3-carbonyl)-amino]-thiazole-4-carboxylic acid]
  EC50: 9 µM
  hGK fold activation at 30 μM: 3.3

## CCCc1cc(C(=O)Nc2nccs2)cs1 [Example 53, 5-Propyl-thiophene-3-carboxylic acid thiazol-2-ylamide]
  EC50: 10 µM
  hGK fold activation at 30 μM: 5.6

## CCCc1cc(C(=O)Nc2ccn(C)n2)cs1 [Example 29, 5-Propyl-thiophene-3-carboxylic acid(1-methyl-1H-pyrazol-3-yl)-amide]
  hGK fold activation at 30 μM: 5.5

## Cc1sc(C(=O)Nc2nccs2)cc1S(=O)(=O)N(C)C [Example 50, 4-Dimethylsulfamoyl-5-methyl-thiophene-2-carboxylic acid thiazol-2-ylamide]
  EC50: 3.9 µM
  hGK fold activation at 30 μM: 2.6

## CCCc1cc(C(=O)Nc2nc3ccccc3[nH]2)cs1 [Example 21, 5-Propyl-thiophene-3-carboxylic acid(1H-benzoimidazol-2-yl)-amide]
  hGK fold activation at 30 μM: 2.4

## Cc1sc(C(=O)Nc2nccs2)cc1S(=O)(=O)NCc1ccccc1 [Example 49, 4-Benzylsulfamoyl-5-methyl-thiophene-2-carboxylic acid thiazol-2-ylamide]
  hGK fold activation at 30 μM: 1.3

## CCCc1cc(C(=O)Nc2cc(Cl)ccn2)cs1 [Example 31, 5-Propyl-thiophene-3-carboxylic acid(4-chloro-pyridin-2-yl)-amide]
  hGK fold activation at 30 μM: 2.7

## CCCc1cc(C(=O)Nc2cc[nH]n2)cs1 [Example 38, 5-Propyl-thiophene-3-carboxylic acid(1H-pyrazol-3-yl)-amide]
  hGK fold activation at 30 μM: 2.7

## CCCc1cc(C(=O)Nc2nc(CC(=O)OCC)cs2)cs1 [Example 11, {2-[(5-Propyl-thiophene-3-carbonyl)-amino]thiazol-4-yl}-acetic acid ethyl ester]
  EC50: 15 µM
  hGK fold activation at 30 μM: 4.9

— US20100331338A1, “Glucokinase Activators” (Merck Patent GMBH, priority 2008, published 2010)
